# Measurements reported in patent US9089532B2, “Stable dosage form of phenylalanine derivatives” (Wilex AG, priority 2004, dated 2015).
# Columns and labels:
# Type in all cases: physicochemical
# [1] = Stability study at 40° C./75% RH of the unbuffered PG/EtOH/water formulation (impurity content, pH value); details: 40 mg/ml in PG/ethanol/water, stored at 40° C., 2-12 weeks
# Procedure: At the same time, the pH value of the formulation rose from 5.1 to 8.7 over a period of 12 weeks (FIG. 1).
# 0.4 ml of propylene glycol (PG) and 0.1 ml of ethanol were added in succession to 40 mg of WX-UK1. […] The remaining water (approx. 0.2 ml) was then added. The solution was then stored at 40° C. and the pH value and purity of the solution were in each case analysed after a period of 2, 4, 6, 8 and 12 weeks. To this end, 250 μl of the WX-UK1 solution were transferred into a 100 ml measuring flask and made up with water/acetonitrile (50:50 vol/vol) to the graduation mark (concentration: approx. 0.1 mg/ml of WX-UK1). 20 μl of this dilution were then analysed by means of a stability-indicating HPLC method analysed (see Annex). pH value-analysis of the WX-UK1 solution was carried out by means of a potentiometric method at 20-25° C.
# [2] = pH-dependency of active ingredient breakdown at 60° C.; details: ethanol/water 1:1, 60° C., up to 48 h
# Procedure: The pH-dependency of active ingredient breakdown (WX-UK1) was investigated at three different pH values with heat treatment at 60° C. by dissolving 2.5 mg of WX-UK1 in 1 ml of ethanol/water (1:1 vol/vol). This solution was aliquoted into three vessels. One aliquot was adjusted to pH 2 by addition of 20 μl of 1 N hydrochloric acid, a second aliquot was adjusted to pH 11 by addition of 20 μl of 2 N sodium hydroxide solution and the third aliquot was left at a neutral pH. After incubation, the solutions were analysed at defined points in time (0, 5, 12 and 48 h) by means of a stability-indicating HPLC method.
# [3] = Earlier investigations: addition of phosphate buffer to WX-UK1 solutions
# [4] = Preliminary testing: solubility of WX-UK1 in solvents and solvent mixtures; details: in polyols, for example diols, and in mixtures of polyol/alcohol and water
# From the text: Both solvents are additionally suitable for parenteral administration of active ingredients.
# FIG. 1 is a Table showing the maximum solubility of WX-UK1 in various solvents and solvent mixtures.
# [5] = Stability of sodium acetate-buffered solutions of various molarities at 60° C.; details: buffering the formulation with sodium acetate pH 5, 60° C., relative to unbuffered formulation
# Procedure: The stability study was carried out at 60° C. in order to achieve accelerated breakdown of WX-UK1 (FIG. 5). The WX-UK1 peak area percentage, determined by a stability-indicating HPLC method, was evaluated.
smiles,measurement,setting,value
"CCOC(=O)N1CCN(C(=O)[C@H](Cc2cccc(C(=N)N)c2)NS(=O)(=O)c2c(C(C)C)cc(C(C)C)cc2C(C)C)CC1 [WX-UK1, Nα-(2,4,6-triisopropylphenylsulfonyl)-3-amidino-(L)-phenylalanine-4-ethoxycarbonylpiperazide]",breakdown in relation to pH value of the solution,[1],"the higher is the pH value of the solution, the faster WX-UK1 breaks down"
same,"stability (breakdown, HPLC)",[2]; acidic pH (pH 2),remained stable
same,"stability (breakdown, HPLC)",[2]; neutral or basic pH (pH 11),moderate to rapid breakdown
same,precipitate formation,[3],formation of a precipitate
same,solubility,[4],very good solubility
same,rate of breakdown,[5],considerable reduction in the rate of breakdown
